Results reported in patent EP3431468B1, “USE OF ADIPONECTIN RECEPTOR AGONISTS IN TREATING DEPRESSION, ANXIETY AND NEUROINFLAMMATION” (CENTRE NATIONAL DE LA RECHERCHE SCIENTIFIQUE, priority 2017, dated 2019).

Tests used:
[1] = test system: wt and depression-like mouse models; assay: Forced Swimming test (FST), acute administration; format: in vivo; settings: LPS-treated mice (0.83 mg/kg LPS), 1mg/kg ip
Method: (§1) Three well-established mouse models of depression-like behavior have been used in the present study namely i- the long-term corticosterone treatment in the drinking water (David, Samuels et al. 2009), ii- the peripheral administration of LPS (O'Connor, Lawson et al. 2009) iii- the ApN^-/- mice (Liu, Guo et al. 2012). For chronic AdipoRon treatment, the experimental protocol was as followed: • i- Five weeks old male mice (five/cage) received corticosterone (35mg/L dissolved in tap water containing 4 g/L CD) or vehicle alone ad libitum for during 7 consecutive weeks (David, Samuels et al. 2009). Corticosterone and vehicle solutions were changed every 3 days to prevent possible degradation. […]
(§2) All behavioral testing were conducted during the light phase (between 09:00 and 14:00 am) in compliance with the Institutional Animal Care and Use Committee of the University of Nice-Sophia Antipolis (permission number 010344.01 from the French "Ministère de l'Enseignement Supérieur et de la Recherche" granted to Dr. Joëlle Chabry). • Forced Swimming test (FST) - Mice were placed an inescapable transparent tank (20cm diameter, 30cm deep) filled with water (23°C ± 0.5) for six minutes as previously described by Porsolt et al. (1977). […] To initiate testing, mice were placed into the light side and activity was recorded for 5 minutes. […]

[2] = test system: corticosterone-treated mice; assay: Social interaction test, chronic administration; format: in vivo; settings: chronic 1mg/kg ip daily
Method: as §1, §2

[3] = Weight, food and water intake under chronic treatment; format: in vivo, mice; settings: chronic AdipoRon treatment
Method: Three well-established mouse models of depression-like behavior have been used in the present study namely i- the long-term corticosterone treatment in the drinking water (David, Samuels et al. 2009), ii- the peripheral administration of LPS (O'Connor, Lawson et al. 2009) iii- the ApN^-/- mice (Liu, Guo et al. 2012). For chronic AdipoRon treatment, the experimental protocol was as followed: • i- Five weeks old male mice (five/cage) received corticosterone (35mg/L dissolved in tap water containing 4 g/L CD) or vehicle alone ad libitum for during 7 consecutive weeks (David, Samuels et al. 2009). Corticosterone and vehicle solutions were changed every 3 days to prevent possible degradation. Additionally, during the last three weeks of corticosterone treatment, mice were daily intraperitoneally (ip) injected with AdipoRon (1mg/kg in 2.5% DMSO) or vehicle alone. • ii- Eight weeks old male mice daily ip injected with AdipoRon or vehicle as described above for twenty consecutive days. One day prior behavioral testing, mice were injected ip with LPS (0.83 mg/kg) or saline solution; the LPS dose was selected on the basis of its ability to induce the full spectrum of the acute sickness and depressive-like behaviors (Lestage, Verrier et al. 2002).

[4] = test system: hippocampal neurogenesis; assay: Hippocampal neurogenesis (BrdU-positive cells in dentate gyrus); format: in vivo, mice; settings: chronic AdipoRon

SMILES: O=C(COc1ccc(C(=O)c2ccccc2)cc1)NC1CCN(Cc2ccccc2)CC1 [AdipoRon, 2-(4-Benzoylphenoxy)-N-[1-(phenylmethyl)-4-piperidinyl]-acetamide]
- immobility time in the FST [1]: significantly to reducing this parameter
- social interactions ([2]; corticosterone-treated mice): reversed the effect of corticosterone
- social interactions ([2]; vehicle-treated mice (no corticosterone)): no significant effect
- food and water intake [3]: did not significantly modify
- weight of mice [3]: did not significantly modify
- hippocampal neurogenesis rate (BrdU-positive nuclei in dentate gyrus) ([4]; control conditions (no corticosterone)): without modifying neurogenesis
- hippocampal neurogenesis rate (BrdU-positive nuclei in dentate gyrus) ([4]; long-term corticosterone-treated mice, 21-days post-BrdU injections): reversed the deleterious effect of corticosterone
